Measurements from US20050261129A1, “Method of protecting plants from bacterial and fungal diseases” (priority 2003, published 2005).

What follows are compounds tested on tomato seedlings (assay: Tomato SAR trial, greenhouse foliar vigour (phytotoxicity) ratings (Example 9)). Conditions: 0, severe foliar injury; 10, foliage green in excellent health; each treatment followed by BONZI 5 ppm.
Description: Tomatoes were seeded in a green house and the SAR compositions applied three separate times, first as a drench nine days after seeding, the second at the 2-leaf stage 15 days after seeding, and finally as a foliar application in the filed approximately two months from seeding. Each treatment was followed up by a 5 ppm application of a plant growth regulator comprising paclobutrazol available under the name BONZI from Syngenta, Greensboro, N.C. […] This procedure was replicated four times in a randomized complete block design. […] Phytotoxicity ratings were also taken in green house prior to transplanting.
`CC1(C)CC[C@]2(C(=O)O)CC[C@]3(C)C(=CC[C@@H]4[C@@]5(C)CC[C@H](O)[C@@](C)(CO)[C@@H]5CC[C@]43C)[C@@H]2C1` [Sapogenin 5, Hederagenin] was tested, and the “Greenhouse Evaluations: Foliar Vigour Ratings (0-10)” value (from here on “Greenhouse Evaluations”) was 4.3. With `COC(=O)[C@@]1(C)CC[C@]2(C(=O)O)CC[C@]3(C)C(=CCC4[C@@]5(C)CCC(O)[C@@](C)(CO)C5CC[C@]43C)C2C1` (stereo partly drawn) [Sapogenin 4, Phytolaccagenic acid] the “Greenhouse Evaluations” value was 4.3. In the case of `CC1(C)CC[C@]2(C(=O)O)CC[C@]3(C)C(=CC[C@@H]4[C@@]5(C)CC[C@H](O)C(C)(C)[C@@H]5CC[C@]43C)[C@@H]2C1` [Sapogenin 6, Oleanolic acid], the “Greenhouse Evaluations” value is reported as 4.3. With `CC1(C)CC[C@]2(C(=O)O)CC[C@]3(C)C(=CC[C@@H]4[C@@]5(C)CC[C@H](O)C(C)(C)[C@@H]5CC[C@]43C)[C@@H]2C1` [Sapogenin 3, Oleanolic acid] the “Greenhouse Evaluations” value was 4.7. With `CC1(C)CC[C@]2(C(=O)O)CC[C@]3(C)C(=CC[C@@H]4[C@@]5(C)CC[C@H](O)[C@@](C)(CO)[C@@H]5CC[C@]43C)[C@@H]2C1` [Sapogenin 2, Hederagenin] the “Greenhouse Evaluations” value was 5.3. For `COC(=O)[C@@]1(C)CC[C@]2(C(=O)O)CC[C@]3(C)C(=CCC4[C@@]5(C)CCC(O)[C@@](C)(CO)C5CC[C@]43C)C2C1` (stereo partly drawn) [Sapogenin 1, Phytolaccagenic acid], the “Greenhouse Evaluations” value was 5.7.
